Data reported in article PMC9234962, “Optimization of Peptide Linker-Based Fluorescent Ligands for the Histamine H1 Receptor” (Journal of Medicinal Chemistry, 2022).
Square brackets hold non-standard residues; d marks the D form. Peptide text beside a SMILES is read from it. * marks the point of attachment. X1 = O=C(COc1ccc(/C=C/C2=[N+]3C(=Cc4ccc(-c5cccs5)n4[B-]3(F)F)C=C2)cc1)*; Propanoyl(3-Pip(4-O-2-BnPh)) = O=C(CCN1CCC(Oc2ccccc2Cc2ccccc2)CC1)*; βAla = NCCC(=O)O

Biological target: Nluc-H1R (Homo sapiens, UniProt P35367)
Assay: NanoBRET saturation binding assay on Nluc-H1R expressing HEK293T cells
Design: expressed in transfected cells
Conditions: saturation binding curves, whole HEK293T cells; for pKD: non-specific with 10 μM mepyramine, mean ± SEM
Source text: Total and non-specific saturation binding curves from NanoBRET saturation binding assay were fitted simultaneously using eq 1: [drawing 4] 1 where Bmax is the maximal specific binding, [B] is the concentration of fluorescent ligand in nM, KD is the equilibrium dissociation constant in nM, M is the slope of the non-specific component, and C is the intercept with the Y axis.

Sequence of Nluc-H1R (P35367 whole entry): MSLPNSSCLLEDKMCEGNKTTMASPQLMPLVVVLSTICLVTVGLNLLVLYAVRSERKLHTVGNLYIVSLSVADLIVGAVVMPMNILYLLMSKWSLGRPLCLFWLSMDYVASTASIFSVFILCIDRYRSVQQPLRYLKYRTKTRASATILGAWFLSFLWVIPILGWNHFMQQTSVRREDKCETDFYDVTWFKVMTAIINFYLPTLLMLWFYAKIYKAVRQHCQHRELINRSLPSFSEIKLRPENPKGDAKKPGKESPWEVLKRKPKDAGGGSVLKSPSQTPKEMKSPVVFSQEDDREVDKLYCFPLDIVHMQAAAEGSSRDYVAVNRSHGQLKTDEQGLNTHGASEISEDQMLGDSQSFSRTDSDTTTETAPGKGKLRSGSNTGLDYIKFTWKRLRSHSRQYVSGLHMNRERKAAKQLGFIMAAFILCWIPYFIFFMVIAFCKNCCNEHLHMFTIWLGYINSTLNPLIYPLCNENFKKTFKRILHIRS

SMILES | Kd | pKD
CC(C)[C@H](NC(=O)CCN1CCC(Oc2ccccc2Cc2ccccc2)CC1)C(=O)N[C@@H](CCC(=O)O)C(=O)N[C@@H](CC(N)=O)C(=O)N[C@@H](Cn1cc(COc2ccc(/C=C/C3=[N+]4C(=Cc5ccc(-c6cccs6)n5[B-]4(F)F)C=C3)cc2)nn1)C(N)=O [Compound 22c, (S)-5-(((S)-4-Amino-1-(((S)-1-amino-3-(4-((4-((E)-2-(5,5-difluoro-7-(thiophen-2-yl)-5H-5λ^4,6λ^4-dipyrrolo[1,2-c:2’,1’-f][1,3,2]diazaborinin-3-yl)vinyl)phenoxy)methyl)-1H-1,2,3-triazol-1-yl)-1-oxopropan-2-yl)amino)-1,4-dioxobutan-2-yl)amino)-4-((S)-2-(3-(4-(2-benzylphenoxy)piperidin-1-yl)propanamido)-3-methylbutanamido)-5-oxopentanoic Acid] | 162 nM | 6.79 ± 0.04
CC(C)[C@H](NC(=O)CCN1CCC(Oc2ccccc2Cc2ccccc2)CC1)C(=O)N[C@@H](CO)C(=O)N[C@@H](CC(N)=O)C(=O)NCCC(=O)N[C@@H](CCCn1cc(COc2ccc(/C=C/C3=[N+]4C(=Cc5ccc(-c6cccs6)n5[B-]4(F)F)C=C3)cc2)nn1)C(N)=O [Compound 28a, (S)-N1-(3-(((S)-1-Amino-5-(4-((4-((E)-2-(5,5-difluoro-7-(thiophen-2-yl)-5H-5λ^4,6λ^4-dipyrrolo[1,2-c:2’,1’-f][1,3,2]diazaborinin-3-yl)vinyl)phenoxy)methyl)-1H-1,2,3-triazol-1-yl)-1-oxopentan-2-yl)amino)-3-oxopropyl)-2-((S)-2-((S)-2-(3-(4-(2-benzylphenoxy)piperidin-1-yl)propanamido)-3-methylbutanamido)-3-hydroxypropanamido)succinamide] | 20 nM | 7.70 ± 0.05
C[C@H](NC(=O)CCN1CCC(Oc2ccccc2Cc2ccccc2)CC1)C(=O)N[C@@H](C)C(=O)N[C@@H](C)C(=O)NCCC(=O)N[C@@H](CCCn1cc(COc2ccc(/C=C/C3=[N+]4C(=Cc5ccc(-c6cccs6)n5[B-]4(F)F)C=C3)cc2)nn1)C(N)=O [Compound 28b, (S)-2-((6S,9S,12S)-16-(4-(2-Benzylphenoxy)piperidin-1-yl)-6,9,12-trimethyl-5,8,11,14-tetraoxo-4,7,10,13-tetraazahexadecanamido)-5-(4-((4-((E)-2-(5,5-difluoro-7-(thiophen-2-yl)-5H-5λ^4,6λ^4-dipyrrolo[1,2-c:2’,1’-f][1,3,2]diazaborinin-3-yl)vinyl)phenoxy)methyl)-1H-1,2,3-triazol-1-yl)pentanamide] | 14 nM | 7.86 ± 0.06
CC(C)[C@H](NC(=O)CCN(C)CC/C=C1\c2ccccc2COc2ccccc21)C(=O)N[C@@H](CO)C(=O)N[C@@H](CC(N)=O)C(=O)NCCC(=O)N[C@@H](CCCn1cc(COc2ccc(/C=C/C3=[N+]4C(=Cc5ccc(-c6cccs6)n5[B-]4(F)F)C=C3)cc2)nn1)C(N)=O [Compound 28c, (S)-N1-(3-(((S)-1-Amino-5-(4-((4-((E)-2-(5,5-difluoro-7-(thiophen-2-yl)-5H-5λ^4,6λ^4-dipyrrolo[1,2-c:2’,1’-f][1,3,2]diazaborinin-3-yl)vinyl)phenoxy)methyl)-1H-1,2,3-triazol-1-yl)-1-oxopentan-2-yl)amino)-3-oxopropyl)-2-((S)-2-((S)-2-(3-(((E)-3-(dibenzo[b,e]oxepin-11(6H)-ylidene)propyl)(methyl)amino)propanamido)-3-methylbutanamido)-3-hydroxypropanamido)succinamide] | 19 nM | 7.72 ± 0.11
C[C@H](NC(=O)CCN(C)CC/C=C1\c2ccccc2COc2ccccc21)C(=O)N[C@@H](C)C(=O)N[C@@H](C)C(=O)NCCC(=O)N[C@@H](CCCn1cc(COc2ccc(/C=C/C3=[N+]4C(=Cc5ccc(-c6cccs6)n5[B-]4(F)F)C=C3)cc2)nn1)C(N)=O [Compound 28d] | 5 nM | 8.27 ± 0.05
CC(C)[C@H](NC(=O)CCN1CCC(Oc2ccccc2Cc2ccccc2)CC1)C(=O)N[C@@H](C)C(=O)N[C@@H](CC(N)=O)C(=O)NCCC(=O)N[C@@H](CCCCNC(=O)COc1ccc(/C=C/C2=[N+]3C(=Cc4ccc(-c5cccs5)n4[B-]3(F)F)C=C2)cc1)C(N)=O [Compound 31b, (S)-N1-(3-(((S)-1-Amino-6-(2-(4-((E)-2-(5,5-difluoro-7-(thiophen-2-yl)-5H-5λ^4,6λ^4-dipyrrolo[1,2-c:2’,1’-f][1,3,2]diazaborinin-3-yl)vinyl)phenoxy)acetamido)-1-oxohexan-2-yl)amino)-3-oxopropyl)-2-((S)-2-((S)-2-(3-(4-(2-benz-ylphenoxy)piperidin-1-yl)propanamido)-3-methylbutanamido)propanamido)succinamide] ({Propanoyl(3-Pip(4-O-2-BnPh))}-VAN[βAla]K(X1)-NH2) | 5 nM | 8.34 ± 0.09
C[C@@H](O)[C@H](NC(=O)CCN1CCC(Oc2ccccc2Cc2ccccc2)CC1)C(=O)N[C@@H](CO)C(=O)N[C@@H](CC(N)=O)C(=O)NCCC(=O)N[C@@H](CCCCNC(=O)COc1ccc(/C=C/C2=[N+]3C(=Cc4ccc(-c5cccs5)n4[B-]3(F)F)C=C2)cc1)C(N)=O [Compound 31c, (S)-N1-(3-(((S)-1-Amino-6-(2-(4-((E)-2-(5,5-difluoro-7-(thiophen-2-yl)-5H-5λ^4,6λ^4-dipyrrolo[1,2-c:2’,1’-f][1,3,2]diazaborinin-3-yl)vinyl)phenoxy)acetamido)-1-oxohexan-2-yl)amino)-3-oxopropyl)-2-((S)-2-((2S,3R)-2-(3-(4-(2-benzylphenoxy)piperidin-1-yl)propanamido)-3-hydroxy-butanamido)-3-hydroxypropanamido)succinamide] ({Propanoyl(3-Pip(4-O-2-BnPh))}-TSN[βAla]K(X1)-NH2) | 6 nM | 8.20 ± 0.07
C[C@H](NC(=O)[C@@H](NC(=O)CCN1CCC(Oc2ccccc2Cc2ccccc2)CC1)[C@@H](C)O)C(=O)N[C@@H](CC(N)=O)C(=O)NCCC(=O)N[C@@H](CCCCNC(=O)COc1ccc(/C=C/C2=[N+]3C(=Cc4ccc(-c5cccs5)n4[B-]3(F)F)C=C2)cc1)C(N)=O [Compound 31d, (S)-N1-(3-(((S)-1-Amino-6-(2-(4-((E)-2-(5,5-difluoro-7-(thiophen-2-yl)-5H-5λ^4,6λ^4-dipyrrolo[1,2-c:2’,1’-f][1,3,2]diazaborinin-3-yl)vinyl)phenoxy)acetamido)-1-oxohexan-2-yl)amino)-3-oxopropyl)-2-((S)-2-((2S,3R)-2-(3-(4-(2-benzylphenoxy)piperidin-1-yl)propanamido)-3-hydroxybutanamido)propanamido)succinamide] ({Propanoyl(3-Pip(4-O-2-BnPh))}-TAN[βAla]K(X1)-NH2) | 5 nM | 8.29 ± 0.07
CC(C)[C@H](NC(=O)CCN1CCC(Oc2ccccc2Cc2ccccc2)CC1)C(=O)N[C@@H](CO)C(=O)N[C@@H](Cc1ccc(O)cc1)C(=O)NCCC(=O)N[C@@H](CCCCNC(=O)COc1ccc(/C=C/C2=[N+]3C(=Cc4ccc(-c5cccs5)n4[B-]3(F)F)C=C2)cc1)C(N)=O [Compound 31e, (S)-2-((6S,9S,12S)-16-(4-(2-Benzylphenoxy)piperidin-1-yl)-6-(4-hydroxybenzyl)-9-(hydroxymethyl)-12-isopropyl-5,8,11,14-tetraoxo-4,7,10,13-tetraazahexadecanamido)-6-(2-(4-((E)-2-(5,5-difluoro-7-(thiophen-2-yl)-5H-5λ^4,6λ^4-dipyrrolo[1,2-c:2’,1’-f][1,3,2]diazaborinin-3-yl)vinyl)phenoxy)acetamido)hexanamide] ({Propanoyl(3-Pip(4-O-2-BnPh))}-VSY[βAla]K(X1)-NH2) | 16 nM | 7.80 ± 0.11
CC(C)[C@H](NC(=O)CCN1CCC(Oc2ccccc2Cc2ccccc2)CC1)C(=O)N[C@@H](C)C(=O)N[C@@H](Cc1ccc(O)cc1)C(=O)NCCC(=O)N[C@@H](CCCCNC(=O)COc1ccc(/C=C/C2=[N+]3C(=Cc4ccc(-c5cccs5)n4[B-]3(F)F)C=C2)cc1)C(N)=O [Compound 31f, (S)-2-((6S,9S,12S)-16-(4-(2-Benzylphenoxy)piperidin-1-yl)-6-(4-hydroxybenzyl)-12-isopropyl-9-methyl-5,8,11,14-tetraoxo-4,7,10,13-tetraazahexadecanamido)-6-(2-(4-((E)-2-(5,5-difluoro-7-(thiophen-2-yl)-5H-5λ^4,6λ^4-di-pyrrolo[1,2-c:2’,1’-f][1,3,2]diazaborinin-3-yl)vinyl)phenoxy)acetamido)hexanamide] ({Propanoyl(3-Pip(4-O-2-BnPh))}-VAY[βAla]K(X1)-NH2) | 11 nM | 7.96 ± 0.11
C[C@@H](O)[C@H](NC(=O)CCN1CCC(Oc2ccccc2Cc2ccccc2)CC1)C(=O)N[C@@H](CO)C(=O)N[C@@H](Cc1ccc(O)cc1)C(=O)NCCC(=O)N[C@@H](CCCCNC(=O)COc1ccc(/C=C/C2=[N+]3C(=Cc4ccc(-c5cccs5)n4[B-]3(F)F)C=C2)cc1)C(N)=O [Compound 31g, (S)-2-((6S,9S,12S)-16-(4-(2-Benzylphenoxy)piperidin-1-yl)-6-(4-hydroxybenzyl)-12-((R)-1-hydroxyethyl)-9-(hydroxymethyl)-5,8,11,14-tetraoxo-4,7,10,13-tetraazahexadecanamido)-6-(2-(4-((E)-2-(5,5-difluoro-7-(thiophen-2-yl)-5H-5λ^4,6λ^4-dipyrrolo[1,2-c:2’,1’-f][1,3,2]diazaborinin-3-yl)vinyl)phenoxy)acetamido)hexanamide] ({Propanoyl(3-Pip(4-O-2-BnPh))}-TSY[βAla]K(X1)-NH2) | 7 nM | 8.16 ± 0.12
